According to patent publication US9387213B2, “Small molecules inhibiting oncoprotein Myc” (Health Research, Inc., priority 2012, dated 2016):

Columns and labels:
[1] = in vitro; conditions: microsomes, pH 7.4; for Percent Remaining 0 min: 0 h; for Percent Remaining 30 min: 0.5 h; for Percent Remaining 60 min: 1 h
Protocol: Additionally, several of the N77A7 analogs were subjected to the test for the metabolic stability in human and mouse liver microsomes. Briefly, 1 μM of test compound was incubated with microsomal protein (human liver microsomes: 0.5 mg/mL; mouse liver microsomes 0.5 mg/mL) and buffer (100 mM potassium phosphate, pH 7.4, 5 mM magnesium chloride). The positive control was 5 μM testosterone. The reaction was equilibrated at 37 C in a shaking water bath for 3 to 5 minutes. After equilibration, an aliquot was removed and combined with 50/50 acetonitrile/water containing 0.1% formic acid and internal standard to terminate the reaction. 1 mM NADPH was immediately added and the tube was returned to the water bath. Five sample time points were taken (0, 10, 20, 30, and 60 minutes). Aliquots were removed and combined with 50/50 acetonitrile/water containing 0.1% formic acid and internal standard to terminate the reaction. The samples were mixed for 10 minutes and centrifuged. The supernatant from each sample was diluted (if necessary) and then transferred to vials for analysis by LC-MS/MS for the test compound and internal standard without calibration standards. The percent remaining at each time point was determined by the test compound's peak area response ratio versus the 0 minute sample.

[2] = system: SK-Mel-19; test: Suppression of proliferation / senescence induction in melanoma line; format: cell-based; conditions: Homo sapiens, SK-MEL19
Source text: (§1) 260 analogs of N77A7 were selected from several commercially available libraries of small molecules based on the structural similarities with N77A7. The compounds were screened for the ability to permanently suppress proliferation and induce senescence in cells from melanoma lines SK-Mel-19 and SK-Mel-103. Based on the above-described screening procedure, seven small molecules were identified as having IC50 values lower than that of N77A7.

[3] = system: SK-Mel-103; test: as above; format: cell-based; conditions: Homo sapiens
Source text: as §1

[4] = system: HO-null cells; test: Secondary filter for Myc specificity: cell growth inhibition, methylene blue staining; format: cell-based; conditions: Rattus norvegicus, 72 h, read-out: ID50 HO-null
Protocol: (§2) FIG. 4 illustrates the myc specificity of tested compounds. Rat1a cells expressing c-myc, L-myc or N-myc or lacking any Myc (null) were treated for 72 h with a range of hit compound concentrations. The cells were then fixed and stained with methylene blue and the percentage of cells in the presence of compound compared to DMSO only control was calculated.
(§3) Validated hits were divided into classes when two or more compounds shared significant structural similarity. The ID50 for N-myc transactivation (the inhibitory dose resulting in 50% decrease in luciferase activity) for each hit was calculated from the dose-response N-myc responsive reporter assay. Compounds within each class were ranked by their ID50 for N-myc transactivation and the best compounds within each class were chosen for further studies. In addition, the best of the structurally unique compounds were also analyzed. A total of 46 hits were passed through a secondary filter designed to determine the specificity of the hits for Myc proteins. For this filter, we used a panel of cell lines derived from Rat1a cells (kindly provided by Michael Cole, Dartmouth University): HO-null-c-Myc deficient cells due to homologous recombination that express neither N-myc nor L-myc HO-c-Myc, HO-L-myc and HO-N-myc derived by retroviral transduction of the corresponding Myc genes into HO-null cells. Since each cell line expresses only a single Myc or no Myc family members, we could identify compounds that act through Myc family members as well as which Myc family members. […] The 18 Myc-specific compounds identified during the screening and filtering process are presented in Table 1 and represent distinct classes of molecules, including pyrazoles (e.g., N147A7, N47E10, N147G5), tetrazoles (e.g., N77A7) and 3-bromophenol (e.g., N4G6).

[5] = system: HO-N-myc cells; test: as above; format: cell-based, rat
Protocol: as §2, §3

[6] = system: HO-c-Myc cells; test: as above; format: cell-based, rat
Protocol: as §2, §3

[7] = system: panel of tumor cell lines, including neuroblastoma and melanoma; test: Effect of Myc inhibitors against panel of tumor cell lines, growth/viability by MTS and resazurin; format: cell-based, human; conditions: neuroblastoma lines IMR32, NBL-WN, 72 h
Protocol: FIG. 6 illustrates putative Myc inhibitors that are efficacious against tumor but not normal cells. Melanocytes and melanoma (#3 and #10) (A) and neuroblastoma (B) were incubated in the continuous presence of Myc inhibitors for 72 h and cell growth/viability determined by standard MTS and resazurin methods, respectively. Data for three hits is presented as a percent of DMSO vehicle control.

Q: Which results are given for CCN(CC)c1ccc(/C=N/NC(=O)c2cc(C)n[nH]2)c(O)c1 [Compound 3]?
A: Percent Remaining 0 min ([1]; human, 1 μM): 100%; Percent Remaining 10 min ([1]; human, 1 μM): 93%; Percent Remaining 20 min ([1]; human, 1 μM): 66%; Percent Remaining 30 min ([1]; human, 1 μM): 49%; Percent Remaining 60 min ([1]; human, 1 μM): 24%; half-life at 1 µM ([1]; human): 29.5 min; microsomal CLint at 1 μM ([1]; human): 47 µL/min/mg; Percent Remaining 0 min ([1]; mouse, 1 μM): 100%; Percent Remaining 10 min ([1]; mouse, 1 μM): 39%; Percent Remaining 20 min ([1]; mouse, 1 μM): 12%; Percent Remaining 30 min ([1]; mouse, 1 μM): 3.7%; Percent Remaining 60 min ([1]; mouse, 1 μM): <1.0%; half-life at 1 µM ([1]; mouse): 7 min; microsomal CLint at 1 μM ([1]; mouse): 200 µL/min/mg; IC50 [2]: 500 nM; IC50 [3]: 500 nM

Q: For COCc1cc(CN(C)C2CCCCC2)c(O)c2ncccc12 [Compound N269D8], which IC50 [4] is on record?
A: 4520 nM

Q: What about the “Myc Index N” value ([5]; ID50 in HO-null cells divided by ID50 in HO—N-myc cells) of the same compound?
A: 5.3

Q: And the IC50 ([5]; Rattus norvegicus, cell growth inhibition, 72 h, methylene blue, read-out: ID50 HO—N-myc)?
A: 850 nM

Q: And the “Myc Index C” value ([6]; ID50 in HO-null cells divided by ID50 in HO-c-myc cells)?
A: 6.3

Q: What about the IC50 ([6]; Rattus norvegicus, cell growth inhibition, 72 h, methylene blue, read-out: ID50 HO-c-myc) of the same compound?
A: 720 nM

Q: What about the “toxicity to N-myc amplified lines versus SH-EP cells” value [7] of the same compound?
A: more toxic to the N-myc amplified cell lines, IMR32 and NBL-WN than to SH-EP cells

Q: What does the source list for CCN(CC)Cc1c(C(=O)N/N=C/c2ccc(N(CC)CC)cc2O)nnn1-c1nonc1N [Compound 6]?
A: Percent Remaining 0 min ([1]; human, 1 μM): 100%; Percent Remaining 10 min ([1]; human, 1 μM): 49%; Percent Remaining 20 min ([1]; human, 1 μM): 31%; Percent Remaining 30 min ([1]; human, 1 μM): 18%; Percent Remaining 60 min ([1]; human, 1 μM): 6.9%; half-life at 1 µM ([1]; human): 11.5 min; microsomal CLint at 1 μM ([1]; human): 120 µL/min/mg; Percent Remaining 0 min ([1]; mouse, 1 μM): 100%; Percent Remaining 10 min ([1]; mouse, 1 μM): 20%; Percent Remaining 20 min ([1]; mouse, 1 μM): 8.9%; Percent Remaining 30 min ([1]; mouse, 1 μM): 4.3%; Percent Remaining 60 min ([1]; mouse, 1 μM): 1.2%; half-life at 1 µM ([1]; mouse): 4.6 min; microsomal CLint at 1 μM ([1]; mouse): 300 µL/min/mg; IC50 [2]: 350 nM; IC50 [3]: 250 nM

Q: For CCN(CC)c1ccc(/C=N/NC(=O)Cn2c3ccccc3c(=O)c3ccccc32)c(O)c1 [Compound 2], which “Percent Remaining 0 min” value ([1]; human, 1 μM) is on record?
A: 100%

Q: What about the Half-life ([1]; human, 1 μM) of the same compound?
A: >60 min

Q: What about the “Percent Remaining 10 min” value ([1]; human, 1 μM) of the same compound?
A: 119%

Q: And the “Percent Remaining 20 min” value ([1]; human, 1 μM)?
A: 91%

Q: What about the “Percent Remaining 30 min” value ([1]; human, 1 μM) of the same compound?
A: 83%

Q: What about the “Percent Remaining 60 min” value ([1]; human, 1 μM) of the same compound?
A: 74%

Q: And the half-life at 1 µM ([1]; human)?
A: > 60 min

Q: What about the microsomal CLint at 1 μM ([1]; human) of the same compound?
A: < 20 µL/min/mg

Q: What about the “Percent Remaining 0 min” value ([1]; mouse, 1 μM) of the same compound?
A: 100%

Q: What about the “Percent Remaining 10 min” value ([1]; mouse, 1 μM) of the same compound?
A: 45%

Q: What about the “Percent Remaining 20 min” value ([1]; mouse, 1 μM) of the same compound?
A: 32%

Q: What about the “Percent Remaining 30 min” value ([1]; mouse, 1 μM) of the same compound?
A: 26%

Q: What about the “Percent Remaining 60 min” value ([1]; mouse, 1 μM) of the same compound?
A: 21%

Q: What about the half-life at 1 µM ([1]; mouse) of the same compound?
A: 13.5 min

Q: What about the microsomal CLint at 1 μM ([1]; mouse) of the same compound?
A: 100 µL/min/mg

Q: And the IC50 [2]?
A: 400 nM

Q: And the IC50 [3]?
A: 400 nM

Q: For CCCN(CCC)Cc1c(C(=O)N/N=C/c2ccc(N(CC)CC)cc2O)nnn1-c1nonc1N [Compound 7], which “Percent Remaining 0 min” value ([1]; human, 1 μM) is on record?
A: 100%

Q: And the “Percent Remaining 10 min” value ([1]; human, 1 μM)?
A: 46%

Q: And the “Percent Remaining 20 min” value ([1]; human, 1 μM)?
A: 25%

Q: And the “Percent Remaining 30 min” value ([1]; human, 1 μM)?
A: 20%

Q: And the “Percent Remaining 60 min” value ([1]; human, 1 μM)?
A: 11%

Q: And the half-life at 1 µM ([1]; human)?
A: 10.7 min

Q: And the microsomal CLint at 1 μM ([1]; human)?
A: 130 µL/min/mg

Q: What about the “Percent Remaining 0 min” value ([1]; mouse, 1 μM) of the same compound?
A: 100%

Q: And the “Percent Remaining 10 min” value ([1]; mouse, 1 μM)?
A: 26%

Q: And the “Percent Remaining 20 min” value ([1]; mouse, 1 μM)?
A: 7.1%

Q: What about the “Percent Remaining 30 min” value ([1]; mouse, 1 μM) of the same compound?
A: 3.8%

Q: What about the “Percent Remaining 60 min” value ([1]; mouse, 1 μM) of the same compound?
A: 1.4%

Q: And the half-life at 1 µM ([1]; mouse)?
A: 5.2 min

Q: What about the microsomal CLint at 1 μM ([1]; mouse) of the same compound?
A: 270 µL/min/mg

Q: What about the IC50 [2] of the same compound?
A: 350 nM

Q: What about the IC50 [3] of the same compound?
A: 250 nM
